Paper PMC11233931, “Remodeling tumor‐associated macrophage for anti‐cancer effects by rational design of irreversible inhibition of mitogen‐activated protein kinase‐activated protein kinase 2” (MedComm, 2024)

Key:
MK5 = molecular target: T1, MK5 (Homo sapiens, UniProt Q8IW41); assay: Eurofins kinase selectivity profile, MK5; format: biochemical
T1 construct: purchased Eurofins (Celle Lévescault)
T1 sequence (Q8IW41 1-473): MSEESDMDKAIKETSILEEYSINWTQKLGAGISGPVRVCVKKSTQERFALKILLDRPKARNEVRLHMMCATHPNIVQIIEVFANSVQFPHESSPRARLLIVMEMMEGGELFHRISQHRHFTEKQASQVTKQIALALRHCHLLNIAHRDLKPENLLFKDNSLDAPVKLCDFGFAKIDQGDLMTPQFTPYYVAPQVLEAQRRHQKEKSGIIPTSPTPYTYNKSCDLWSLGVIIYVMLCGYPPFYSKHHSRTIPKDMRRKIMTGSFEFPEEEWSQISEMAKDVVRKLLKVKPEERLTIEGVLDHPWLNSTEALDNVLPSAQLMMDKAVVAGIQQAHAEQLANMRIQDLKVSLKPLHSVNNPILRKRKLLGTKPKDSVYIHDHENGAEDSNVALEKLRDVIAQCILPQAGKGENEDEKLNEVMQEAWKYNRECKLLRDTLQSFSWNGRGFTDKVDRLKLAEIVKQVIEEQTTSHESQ
Method: Subsequently, to ascertain whether the high potency of compound 11 was specific for MK2, an additional 380 human recombinant protein kinases were screened.
To assess the impact of various compounds on MK2 kinase activity, we utilized the ADP‐Glo Assay Kit (Promega) following the manufacturer's instructions. Luminescence measurements were taken using a SpectraMax Paradigm reader. The inhibition percentage was calculated using the following formula: ((specific signalDMSO control − specific signal inhibitor)/(specific signalDMSO control)) × 100%. The IC50 values were determined employing dose–response curve fitting via Prism (Graph Pad). Additionally, Eurofins company (Celle Lévescault) conducted the analysis on compound 11’s inhibitory activity against 380 other human recombinant kinases at various concentrations.

[1] = Cell viability assay (CCK-8), CT26; format: cell-based; settings: mouse, CT26 cells (colorectal carcinoma), CT26, murine colorectal carcinoma, read-out: IC50 (μM) mean ± SD, cytotoxicity
Method: (§1) In cellular experiments, cells are seeded into either 6-well or 96-well plates and incubated overnight, proceeding with treatments as described in the figure legends or methods section. The cell inoculation numbers are outlined as follows: For assays measuring cell viability, between 3,000 to 5,000 cells are seeded per well in 96-well plates. For other cellular assays, the seeding density ranges from 5×10^5 to 1×10^6 cells per well in 6-well plates.
(§2) Cells was plated into 96-well plates and incubated overnight prior to introduction of varying concentrations of compounds or control solvent. Following a 72-hour exposure period, cell viability was determined using a Cell Counting Kit-8 assay (Life-iLab, China). Dose-response curves were fitted using a four-parameter method facilitated by SoftMax Pro, which was subsequently used for the computation of IC50 values.

[2] = Cell viability assay (CCK-8), MC38; format: cell-based; settings: mouse, MC38 cells (colorectal carcinoma), MC38, murine colorectal carcinoma, read-out: IC50 (μM) mean ± SD, cytotoxicity
Method: as §1, §2

[3] = tested on: MRC1 and ARG-1 mRNA in THP-1 monocyte induced macrophages; assay: RT-PCR of M2 markers in IL-4/IL-13 stimulated THP-1 macrophages; format: cell-based, human; settings: IL-4/IL-13 20 ng/mL
Excerpt: (§3) A previous study has reported that MK2 fostered M2‐like polarization of TAMs, driving a protumor and proangiogenic phenotype which in turn accelerates tumor progression.[21] We thus assessed the influence of compound 11 on macrophage polarization and function. Our experiments used human THP‐1 monocyte induced macrophages, mouse RAW264.7 macrophages, and mouse bone marrow‐derived macrophages (BMDM). These cells were induced into M2‐like macrophages using the classic IL‐4 and IL‐13 stimuli.
(§4) FIGURE 5 Inhibition of pro‐tumorigenic M2‐like polarization in macrophages by compound 11. (A–C) RT‐PCR analysis highlights the impact of compound 11 on MRC1 and ARG‐1 mRNA expression in various macrophage cells treated with IL‐4/IL‐13 alone or combined with compound 11 for 12 h or 24 h. […] Data are shown as the mean ± SD. ^* p < 0.05; ^*** p < 0.001 versus the vehicle group, determined by unpaired t test. […]
(§5) Total RNA was extracted from cultured cells using the EZ‐press RNA Purification Kit (EZBioscience). Complementary DNA was synthesized using the ABScript III RT Master Mix for qPCR with gDNA remover (ABclonal Technology) and was quantified with primers listed in Table S5. The relative mRNA expression levels were quantified through qPCR using the SYBR green gene expression assay (ABclonal Technology).

[4] = tested on: MRC1 and ARG-1 mRNA in RAW264.7 macrophages; assay: RT-PCR of M2 markers in IL-4/IL-13 stimulated RAW264.7 macrophages; format: cell-based, mouse; settings: IL-4/IL-13 20 ng/mL
Excerpt: as §3, §4, §5

[5] = tested on: TAMs and CD206+ TAMs in MC38 tumor; assay: Flow cytometry of tumor infiltrating TAMs in MC38 tumor model; format: in vivo, mouse; settings: treated 9 days
Method: as §4, with “h. (D) CD206 and Arg‐1 expression in bone marrow‐derived macrophages (BMDM) cells via flow cytometry post 48 h treatment of compound 11 and IL‐4/IL‐13. (E) The treatment effects of compound 11 in THP‐1 cells using western blot analysis. Cells were pretreated with compound 11 for 1 h and followed by IL‐4/IL‐13 treatment (30 min). (F) The influence of MK2 siRNA on MRC1 and ARG‐1 mRNA expression in THP‐1 cells by RT‐PCR analysis post‐IL‐4/IL‐13 stimulation (12 h).” for “h.”
Antibodies targeting specific proteins along with corresponding isotype controls or FMO controls were employed to examine the leukocyte infiltrate: CD11b, CD45, CD206, Arg‐1, and F4/80 (BD, eBioscience and Biolegend). […] Eventually, the gathered data were analyzed using the FlowJo software, with the gating strategies utilized for flow cytometry represented in Figure S5.

With `C=CC(=O)Nc1cc(-c2cc(-c3cc4c([nH]3)CCNC4=O)ccn2)ccc1OC(F)(F)F` [compound 11] the IC50 (MK5) was > 100 nM, the inhibition at 0.001 µM (MK5; MAPKAP-K5/PRAK(h), 1 nM, read-out: Inhibition rate) was -21% and the inhibition at 0.01 µM (MK5; MAPKAP-K5/PRAK(h), 10 nM, read-out: Inhibition rate) was 6%. It also gave an inhibition at 0.1 µM (MK5; MAPKAP-K5/PRAK(h), 100 nM, read-out: Inhibition rate) of 29%, an IC50 at 72 h [1] of 47.2 ± 2.4 µM and an IC50 at 72 h [2] of 48.3 ± 10.5 µM. The “effect on transcriptional level of MRC1 and ARG-1” value [3] was “significantly suppressed”, the “effect on transcriptional level of MRC1 and ARG-1” value [4] was “significantly suppressed” and the “effect on total and M2-like (CD206+) TAM populations in tumor” value [5] was “marked reduction”.
